{
  "source": "patent US20240034742A1",
  "about": "“DOSING REGIMENS FOR CYCLIN-DEPENDENT KINASE 7 (CDK7) INHIBITORS” (Syros Pharmaceuticals, Inc., priority 2020, published 2024)",
  "key": {"[1]": {"test_system": "12 PDX models representing SCLC, TNBC and HGSOC", "assay": "Tumor growth inhibition in TNBC, HGSOC and SCLC PDX models", "protocol": "(§1) In the TNBC, SCLC, and HGSOC models, tumor volume was measured during the treatment period and for an additional 21 days after treatment ceased. […] The same calculations were used for end of study (day 42).\nDosing was initiated when tumors were 150-300 mm^3. […] TGI was calculated on the last day of dosing using the formula: TGI=(Vc1−Vt1)/(Vc0−Vt0), where Vc1 and Vt1 are the mean volumes of control and treated groups at the time of tumor extraction, while Vc0 and Vt0 are the same groups at the start of dosing."}, "HCC70 cell line": {"test_system": "HCC70 cell line", "assay": "Inhibition of cell proliferation (CyQUANT Direct Cell Proliferation Assay)", "type": "cell-based", "details": "Homo sapiens, 72-hour proliferation assay", "description": "The HCC70 cell line was derived from human TNBC, and we tested representative compounds of the invention, at different concentrations (from […]; 0.5 log serial dilutions), for their ability to inhibit the proliferation of those cells. More specifically, we tested the same compounds tested above for CDK7 selectivity (the structures of which are shown in FIG. 1), and we used the known CDK inhibitors dinaciclib (or N-((1S,3R)-3-((5-chloro-4-(1H-indol-3-yl) pyrimidin-2-yl)amino)cyclohexyl)-5-((E)-4-(dimethylamino)but-2-enamido)picolinamide) and triptolide as positive controls. The cells were grown in ATCC-formulated RPMI-1640 medium (ATCC 30-2001) supplemented with 10% fetal bovine serum (FBS), at 37° C. in a humidified chamber in the presence of 5% CO2. We conducted proliferation assays over a 72-hour time period using a CyQUANT® Direct Cell Proliferation Assay (Life Technologies, Chicago, IL USA) according to the manufacturer's directions and utilizing the reagents supplied with the kit."}, "[2]": {"test_system": "patients with advanced solid tumors", "assay": "Phase 1, first-in-human dose escalation study", "protocol": "We focused on safety, tolerability, PK, and PD (as assessed by a PD gene expression marker, POLR2A mRNA) in a 28-day single agent continuous daily dosing regimen and a 3-week-on, I-week-off combination regimen with fulvestrant.\nSafety and tolerability, including cycle-1 dose-limiting toxicities (DLTs) were evaluated. Dose-limiting toxicities were graded using the National Cancer Institute Common Toxicity Criteria for Adverse Events (NCI-CTCAE) version 5.0. Serial plasma PK and PD in peripheral blood mononuclear cells (PBMCs) were obtained on days 1 and 15 in cycle 1. […] Tumor responses were assessed per RECIST version 1.1."}, "[3]": {"test_system": "PDX models with oncogenic alterations in the RB pathway and MAPK pathway", "assay": "Anti-tumor activity in PDX models with RB or MAPK pathway alterations", "type": "in vivo", "details": "well-tolerated doses; models from SCLC, TNBC, HGSOC, CRC, PDAC, NSCLC patients"}, "[4]": {"test_system": "ST390 (modeling pancreatic ductal adenocarcinoma (PDAC))", "assay": "Tumor growth inhibition in PDAC PDX model ST390", "details": "6 mg/kg QD PO, over the time examined (~28 days)", "protocol": "as §1"}, "[5]": {"test_system": "palbociclib and fulvestrant double-resistant ER+BC PDX model (ST941)", "assay": "Tumor growth inhibition in palbociclib and fulvestrant double-resistant ER+BC PDX model ST941", "type": "in vivo, mice", "details": "last day of 28 days dosing, Compound 101 6 mg/kg QD PO, fulvestrant 2.5 mg/kg weekly SC, palbociclib 50 mpk QD PO", "description": "Tumor growth inhibition was evaluated in estrogen receptor-positive breast cancer (ER-BC) PDX models selected in vivo for resistance to the CDK4/6 inhibitor palbociclib (ST1799, […]) or resistance to both palbociclib and fulvestrant (ST941, n=1), Dosing was initiated when tumors were 100-200 mm^3."}, "[6]": {"details": "single agent and in combination with fulvestrant"}},
  "data": [
    {"smiles": "CC1(C)CC[C@H](Nc2ncc(C(F)(F)F)c(-c3c[nH]c4c(P(C)(C)=O)c(C#N)ccc34)n2)CN1", "note": "[Compound 101, (S)-7-(dimethylphosphoryl)-3-(2-((6,6-dimethylpiperidin-3-yl)amino)-5-(trifluoromethyl)pyrimidin-4-yl)-1H-indole-6-carbonitrile]", "values": [
      {"measurement": "TGI in TNBC (BR5010), SCLC (LU5178) and HGSOC (OV15398) PDX models", "setting": "[1]; 10 mg/kg QD or 5 mg/kg BID (TNBC), 3 mg/kg BID (SCLC, HGSOC), PO, 21 days, plus 21 days observation", "result": "deep and sustained TGI, including regressions"},
      {"measurement": "TGI at the end of the 21-day dosing period in all models", "setting": "[1]; 12 PDX models, 6 or 10 mg/kg QD or 3 or 5 mg/kg BID PO", "result": "at least 50%"},
      {"measurement": "TGI in the subset of models (58%, 7/12) with deep and sustained responses", "setting": "[1]; TGI or regression, no tumor regrowth for 21 days after treatment discontinuation", "result": "> 95", "unit": "%"},
      {"measurement": "tolerability: body weight", "setting": "[1]; all once-daily doses tested, tumor-bearing mice", "result": "no evident body weight loss"},
      {"measurement": "MTD", "setting": "[1]; tumor-bearing mice", "result": "above 10 mg/kg once daily"},
      {"measurement": "EC50", "setting": "HCC70 cell line", "result": 3.6, "unit": "nM"},
      {"measurement": "pharmacodynamics: POLR2A mRNA in PBMCs and CDK7 occupancy", "setting": "[2]; 3 mg daily", "result": "induced POLR2A elevations associated with regressions in preclinical models and target levels of CDK7 occupancy in patients"},
      {"measurement": "dose-limiting events", "setting": "[2]; cohort receiving 4 mg doses, continuous daily (Grade 3 fatigue; abdominal pain)", "result": "two"},
      {"measurement": "dose-limiting events", "setting": "[2]; cohort receiving 5 mg doses, continuous daily (Grade 3 nausea; thrombocytopenia)", "result": "two"},
      {"measurement": "patients who developed an SAE (all causality)", "setting": "[2]; four of 13 patients", "result": 31, "unit": "%"},
      {"measurement": "grade of the majority of reported adverse events", "setting": "[2]; in vivo", "result": "low grade"},
      {"measurement": "accumulation with repeated dosing", "setting": "[2]; [6]", "result": "minimal accumulation"},
      {"measurement": "dose proportionality of PK", "setting": "[2]; [6]", "result": "approximately dose proportional PK"},
      {"measurement": "interpatient variability of PK", "setting": "[2]; [6]", "result": "moderate to high interpatient variability"},
      {"measurement": "steady state half-life", "setting": "[2]; [6]", "result": "compatible with once daily dosing"},
      {"measurement": "best response (RECIST 1.1)", "setting": "[2]; single agent, 3 mg daily, two patients (HR+ breast cancer, colorectal cancer)", "result": "stable disease"},
      {"measurement": "best response (RECIST 1.1)", "setting": "[2]; single agent, 5 mg daily, one patient, esophageal cancer", "result": "stable disease"},
      {"measurement": "MTD", "setting": "[2]; single agent, oral, continuous daily dosing cohorts", "result": 3, "unit": "mg"},
      {"measurement": "response (RECIST 1.1)", "setting": "[2]; single agent, two patients with ovarian cancer, 1 mg and 3 mg daily", "result": "progressive disease"},
      {"measurement": "anti-tumor activity", "setting": "[3]", "result": "robust anti-tumor activity"},
      {"measurement": "Tumor growth inhibition (TGI)", "setting": "[4]", "result": 100, "unit": "%"}
    ]},
    {"smiles": "CC(=O)c1c(C)c2cnc(Nc3ccc(N4CCNCC4)cn3)nc2n(C2CCCC2)c1=O", "note": "[palbociclib]", "values": [
      {"measurement": "Tumor growth inhibition (TGI)", "setting": "[5]", "result": "no activity"}
    ]},
    {"smiles": "C[C@]12CC[C@@H]3c4ccc(O)cc4C[C@@H](CCCCCCCCC[S+]([O-])CCCC(F)(F)C(F)(F)F)[C@H]3[C@@H]1CC[C@@H]2O", "note": "(some centres unmarked) [fulvestrant]", "values": [
      {"measurement": "Tumor growth inhibition (TGI)", "setting": "[5]", "result": "no activity"}
    ]}
  ]
}
